Test results taken from paper PMC6537702, “Design, synthesis, molecular modelling, and biological evaluation of novel substituted pyrimidine derivatives as potential anticancer agents for hepatocellular carcinoma” (Journal of Enzyme Inhibition and Medicinal Chemistry, 2019).
Values after ≈ are worked out from the molar mass of the structure shown. Like-named read-outs stand apart in the source and are kept apart here. One block for each molecule: values may come before it.

Key:
[1] = tested on: caspase 3/7 activity in Huh-7 cells; test: Caspase-Glo 3/7 assay, Huh-7; type: cell-based, human; conditions: 24 h incubation; 2 IC50, IC50, ½ IC50; vs DMSO solvent control; p < .05, n = 3
[2] = Resazurin cell growth inhibition assay, normal fibroblast cells; type: cell-based; conditions: M ± SEM of three independent experiments, read-out: Cytotoxic activity IC50, Fibroblast
Excerpt: (§1) All compounds 2a-e, 3a-d, and PPAD’s 4a-t were subjected to a screening system for evaluation of their anticancer activity against cell line of human cancer, namely liver (HepG2 and Huh-7) cancer and normal fibroblast cells obtained from the German Cancer Research Center (DKFZ), following the Resazurin Cell Growth Inhibition Assay[45] in comparison to the standard treatment using DOX (see Supplementary).
(§2) Cell culture and treatment
(§3) All reagents were handled in a sterile fume hood. DMEM medium, and fetal bovine serum (FBS) were purchased from Gibco;phosphate-buffered saline pH 7.4 (PBS) and trypsin-EDTA were obtained from Sigmae Aldrich. Alamar Blue or Resazurin (Promega,Mannheim, Germany) reduction assay was used to assess the cytotoxicity of the studied samples. The growth medium (DMEMmedium with 10% FBS, 10 0 U/mL penicillin, and 10 0 mg/L streptomycin), and alamar blue were stored at 48 C, while trypsineEDTA and FBS were stored frozen at 208C and thawed before use; PBS was stored at room temperature. The Hep-G2, Huh-7 and normal fibroblast cells were obtained from the German Cancer Research Center (DKFZ).Cells were cultured in 50 cm2 culture flask s (Corning) using DMEM medium supplemented with 10% FBS, penicillin (10 0 IU/mL), and streptomycin ([…]). The culture was maintained at 37 C atmosphere of 5% CO2 and 95% relative humidity. The cells were transferred to a new fl ask every 2 days and treated with trypsineEDTA to detach them from the flask . Cells were counted under a microscope using a hemacytometer (Hausser Scientific).Cell solutions were diluted with growth medium to a concentration of 1 *10^5 cells/mL and transferred to a 96-well plate, and treated with gradient concentrations of test compounds.
(§4) Resazurin cell growth inhibition assay
(§5) Alamar Blue or Resazurin (Promega, Mannheim, Germany) reduction assay was used to assess the cytotoxicity of the studied samples. The assay tests cellular viability and mitochondrial function. Briefly y, adherent cells were grown in tissue culture flask s, and then harvested by treating the fl asks with 0.025% trypsin and0.25 mM EDTA for 5 min. Once detached, cells were washed, counted and an aliquot (5 * 103cells) was placed in each well of a96-well cell culture plate in a total volume of […]. Cells were allowed to attach overnight and then treated with samples. The final concentration of samples ranged from 0 to 10 0 mM. After 4 8 h,[…] Resazurin 0.01% w/v solution was added to each well and the plates were incubated at 37C for 1 -2 h. Fluorescence was measured on an automated 96-well Infinite M2000 ProTM plate reader (Tecan, Crailsheim, Germany) using an excit ation wave-length of 54 4 nm and an emission wavelength of 590 nm. Doxorubicin was used as positive control. Each assay was done at least three times, with two replicates each. The viability was compared based on a comparison with untreated cells. IC50(on cancer cells) were the concentration of sample required to inhibit 50% of the cell proliferation and were calculated from a calibration curve by a linear regression using Microsoft Excel

[3] = tested on: caspase 3/7 activity in HepG2 cells; test: Caspase-Glo 3/7 assay, HepG2; type: cell-based, human; conditions: 24 h incubation; 2 IC50, IC50, ½ IC50; vs DMSO solvent control; p < .05, n = 3
Excerpt: The influence of our test samples on caspase 3/7 activity in liver cancer cells (HepG2 cells) was detected using Caspase-Glo 3/7 Assay kit (Promega, Madison, WI) as previously described[45] (see Supplementary).
as §2, §3, §4
Alamar Blue or Resazurin (Promega, Mannheim, Germany) reduction assay was used to assess the cytotoxicity of the studied samples. The assay tests cellular viability and mitochondrial function. Briefly y, adherent cells were grown in tissue culture flask s, and then harvested by treating the fl asks with 0.025% trypsin and0.25 mM EDTA for 5 min. Once detached, cells were washed, counted and an aliquot (5 * 103cells) was placed in each well of a96-well cell culture plate in a total volume of […]. Cells were allowed to attach overnight and then treated with samples. The final concentration of samples ranged from 0 to 10 0 mM. […] Fluorescence was measured on an automated 96-well Infinite M2000 ProTM plate reader (Tecan, Crailsheim, Germany) using an excit ation wave-length of 54 4 nm and an emission wavelength of 590 nm. […]
The influence of our test samples on cas pase 3/7 activity in […] was detected using Caspase -Glo 3/7 Assay kit (Promega). […] Luminescence was measured using well Infinite M2000 Pro TM instrument (Tecan).Caspase 3/7 activity was expressed as percentage of the unt reated

[4] = tested on: HepG2 cell line; test: Resazurin cell growth inhibition assay, HepG2; type: cell-based, human; conditions: Homo sapiens
Excerpt: as §1, §2, §3, §4, §5

[5] = tested on: Huh-7 cell line; test: Resazurin cell growth inhibition assay, Huh-7; type: cell-based, human; conditions: Homo sapiens
Excerpt: as §1, §2, §3, §4, §5

[6] = HepG2, 48 h, resazurin assay, 48 h, M ± SEM of three independent experiments, read-out: Cytotoxic activity IC50, HepG2 cell line
[7] = HepG2, converted from μg/mL, read-out: IC50 against HepG2 cell line, equivalent in μM
[8] = Huh-7, 48 h, resazurin assay, 48 h, M ± SEM of three independent experiments, read-out: Cytotoxic activity IC50, Huh-7 cell line
[9] = Huh-7, converted from μg/mL, read-out: IC50 against Huh-7 cell line, equivalent in μM

SMILES: N#Cc1c(-c2ccc(F)cc2)nc(N2N=C(c3c4ccccc4cc4ccccc34)CC2c2ccc(F)cc2)[nH]c1=O (stereo not shown) [Compound 4e, 2-[3-Anthracene-9-yl-5–(4-fluoro-phenyl)-4,5-dihydro-pyrazol-1-yl]-4–(4-fluoro-phenyl)-6-oxo-1,6-dihydro-pyrimidine-5-carbonitrile]
activation of caspase 3/7, Huh-7 cell line [1]: significant increase | IC50 at 48 h [2]: 24.1 ± 4.63 µg/mL (≈ 43.6 µM) | activation of caspase 3/7, HepG2 cell line [3]: significant increase | IC50 [4, 6]: 5.34 ± 0.21 µg/mL | IC50 [4, 7]: 9.6 µM | IC50 [5, 8]: 6.13 ± 1.01 µg/mL | IC50 [5, 9]: 11.1 µM

SMILES: N#Cc1c(-c2c[nH]c3ccccc23)nc(N2N=C(c3c4ccccc4cc4ccccc34)CC2c2ccc(F)cc2)[nH]c1=O (stereo not shown) [Compound 4i, 2-[3-Anthracene-9-yl-5–(4-fluoro-phenyl)-4,5-dihydro-pyrazol-1-yl]-4-(1H-indol-3-yl)-6-oxo-1,6-dihydro-pyrimidine-5-carbonitrile]
activation of caspase 3/7, Huh-7 cell line [1]: significant increase | IC50 at 48 h [2]: 31.4 ± 2.07 µg/mL (≈ 54.7 µM) | activation of caspase 3/7, HepG2 cell line [3]: significant increase | melting point: 184 to 185 °C | IC50 [4, 6]: 9.54 ± 1.24 µg/mL | IC50 [5, 8]: 6.47 ± 0.41 µg/mL | IC50 [5, 9]: 11.2 µM

SMILES: COc1cc(-c2nc(N3N=C(c4c5ccccc5cc5ccccc45)CC3c3ccc(F)cc3)[nH]c(=O)c2C#N)cc(OC)c1OC (stereo not shown) [Compound 4m, 2-[3-Anthracene-9-yl-5–(4-fluoro-phenyl)-4,5-dihydro-pyrazol-1-yl]-6-oxo-4–(3,4,5-trimethoxy-phenyl)-1,6-dihydro-pyrimidine-5-carbonitrile]
activation of caspase 3/7, Huh-7 cell line [1]: significant increase | IC50 at 48 h [2]: 24.1 ± 4.34 µg/mL (≈ 38.6 µM) | activation of caspase 3/7, HepG2 cell line [3]: significant increase | melting point: 148 to 150 °C | IC50 [4, 6]: 8.12 ± 1.82 µg/mL | IC50 [5, 8]: 7.5 ± 0.98 µg/mL

SMILES: COc1cc(-c2nc(N3N=C(c4c5ccccc5cc5ccccc45)CC3c3cc(OC)c(OC)c(OC)c3)[nH]c(=O)c2C#N)cc(OC)c1OC (stereo not shown) [Compound 4o, 2-[3-Anthracene-9-yl-5–(3,4,5-trimethoxy-phenyl)-4,5-dihydro-pyrazol-1-yl]-6-oxo-4–(3,4,5-trimethoxy-phenyl)-1,6-dihydro-pyrimidine-5-carbonitrile]
IC50 at 48 h [2]: 28.1 ± 3.31 µg/mL (≈ 40.2 µM) | melting point: 165 to 166 °C | IC50 [4, 6]: 10.2 ± 1.02 µg/mL | IC50 [5, 8]: 14.5 ± 1.24 µg/mL

SMILES: CN(C)c1ccc(-c2nc(N3N=C(c4c5ccccc5cc5ccccc45)CC3c3ccc(F)cc3)[nH]c(=O)c2C#N)cc1 (stereo not shown) [Compound 4q, 2-[3-Anthracene-9-yl-5–(4-fluoro-phenyl)-4,5-dihydro-pyrazol-1-yl]-4–(4-dimethylamino-phenyl)-6-oxo-1,6-dihydro-pyrimidine-5-carbonitrile]
activation of caspase 3/7, Huh-7 cell line [1]: significant increase | IC50 at 48 h [2]: 34.3 ± 6.42 µg/mL (≈ 59.3 µM) | activation of caspase 3/7, HepG2 cell line [3]: significant increase | melting point: 182 to 184 °C | IC50 [4, 6]: 6.85 ± 0.85 µg/mL | IC50 [4, 7]: 11.8 µM | IC50 [5, 8]: 8.66 ± 1.52 µg/mL

Further lines, with some results ahead:

melting point: 174 to 175 °C
SMILES: CN(C)c1ccc(-c2nc(N3N=C(c4c5ccccc5cc5ccccc45)CC3c3ccc(N(C)C)cc3)[nH]c(=O)c2C#N)cc1 (stereo not shown) [Compound 4r, 2-[3-Anthracene-9-yl-5–(4-dimethylamino-phenyl)-4,5-dihydro-pyrazol-1-yl]-4–(4-dimethylamino-phenyl)-6-oxo-1,6-dihydro-pyrimidine-5-carbonitrile]
IC50 at 48 h [2]: 25.2 ± 5.24 µg/mL (≈ 41.8 µM) | IC50 [4, 6]: 8.44 ± 1.1 µg/mL | IC50 [5, 8]: 7.61 ± 0.21 µg/mL

melting point: 160 to 162 °C
SMILES: COc1cc(C2CC(c3c4ccccc4cc4ccccc34)=NN2c2nc(-c3ccc(N(C)C)cc3)c(C#N)c(=O)[nH]2)cc(OC)c1OC (stereo not shown) [Compound 4s, 2-[3-Anthracene-9-yl-5–(3,4,5-trimethoxy-phenyl)-4,5-dihydro-pyrazol-1-yl]-4–(4-dimethylamino-phenyl)-6-oxo-1,6-dihydro-pyrimidine-5-carbonitrile]
IC50 at 48 h [2]: 20.3 ± 4.15 µg/mL (≈ 31.2 µM) | IC50 [4, 6]: 8.66 ± 1.44 µg/mL | IC50 [5, 8]: 11.3 ± 0.61 µg/mL

melting point: 190 to 191 °C
SMILES: CN(C)c1ccc(-c2nc(N3N=C(c4c5ccccc5cc5ccccc45)CC3c3c[nH]c4ccccc34)[nH]c(=O)c2C#N)cc1 (stereo not shown) [Compound 4t, 2-[3-Anthracene-9-yl-5-(1H-indol-3-yl)-4,5-dihydro-pyrazol-1-yl]-4–(4-dimethylamino-phenyl)-6-oxo-1,6-dihydro-pyrimidine-5-carbonitrile]
IC50 at 48 h [2]: 23.5 ± 3.82 µg/mL (≈ 39.2 µM) | IC50 [4, 6]: 9.21 ± 1.05 µg/mL | IC50 [5, 8]: 7.42 ± 1.48 µg/mL
